Data: US20260000070A1 (priority 2023, published 2026)

Test system: endothelial cells / vascular system of perfused tissue

SMILES: CNCC(O)c1ccc(O)c(O)c1 (centres unmarked) [adrenaline]
- flow rate: decrease
- pressure: increase
